From US7888380B2, “1,2,4-Triazolylaminoaryl (heteroaryl) sulfonamide derivatives” (Janssen Pharmaceutica, N.V., priority 2004, dated 2011)
Structures can show the parent of a compound that is named as a salt. Where two headings read alike, the source gives them in different places.

Key:
CDK1:Cyclin-B = molecular target: T1, CDK1:Cyclin-B (Homo sapiens, UniProt P06493); experiment: CDK1 Screening Assay (33P-ATP FlashPlate); assay type: biochemical; settings: 10 μM ATP; >10 or >100 = less than 50% inhibition at highest concentration tested
T1 construct: purchased New England Biolabs, Beverly, Mass; 6020; host or cells: insect cells
Protocol: A kinase reaction mixture was prepared containing 50 mM Tris-HCl pH=8, 10 mM MgCl2, 0.1 mM Na3PO4, 1 mM DTT, 10 μM ATP, 0.025 μM biotinylated histone-H1 peptide substrate and 0.2 μCuries per well ^33P-γ-ATP (2000-3000 Ci/mmol). 70 μL of the kinase reaction mixture was dispensed into each well of a streptavidin coated FlashPlate™ (Cat. # SMP103, NEN, Boston, Mass.). Then 1 μL of test compound stock in 100% DMSO was added to the wells resulting in a final concentration of 1% DMSO in the reaction with a 100 μl final reaction volume.
Next, CDK1:Cyclin-B protein was diluted in 50 mM Tris-HCl pH=8.0, 0.1% BSA at a concentration of 1 ng per μL and 30 μL (30 ng enzyme per test well) was added to each well to initiate the reaction. The reaction was incubated for one hour at 30° C. At the end of the 1 h incubation, the reaction was terminated by aspirating the mixture from the plate and washing the wells twice with PBS containing 100 mM EDTA. The histone-H1 biotinylated peptide substrate became immobilized on the Flashplate™ and the incorporation of ^33P-γ-ATP was measured by reading the plate on a scintillation counter. Inhibition of the enzymatic activity of CDK1 was measured by observing a reduced amount of ^33P-γ-ATP incorporated into the immobilized peptide.
(§1) VEGF-R (vascular endothelial growth factor receptor-2) is a fusion protein containing a polyhistidine tag at the N-terminus followed by amino acids 786-1343 of the rat VEGF-R2 kinase domain (GenBank Accession #U93306). CDK1 (cyclin dependent kinase 1) was isolated from insect cells expressing both the human CDK1 catalytic subunit and its positive regulatory subunit cyclin B (New England Biolabs, Beverly, Mass., Cat. # 6020). CDK2 in complex with cyclin A is commercially available (Upstate Biotech, Lake Placid, N.Y.). The HER2 (human epidermal growth factor receptor-2) construct contains a polyhistidine tag at the N-terminus followed by 24 additional amino acids and begins at amino acid 676 followed by the remainder of the HER2 cytoplasmic domain.

VEGF-R2 kinase = molecular target: T2, VEGF-R2 kinase (Rattus norvegicus, UniProt O08775); experiment: VEGF-R2 Kinase Screening Assay; assay type: biochemical; settings: 10 μM ATP; rat VEGF-R2 kinase domain; read-out: IC50 (μM) VEGFR
T2 construct: 6xHis (polyhistidine) (N)
Protocol: A kinase reaction mixture was prepared containing 50 mM Tris-HCl pH=8, 10 mM MgCl2, 0.1 mM Na3PO4, 1 mM DTT, 10 μM ATP, 0.025 μM biotinylated peptide substrate and 0.8 μCuries per well ^33P-γ-ATP (2000-3000 Ci/mmol). 70 μL of the kinase reaction mixture was dispensed into each well of a streptavidin coated FlashPlate™ (Cat. # SMP103, NEN, Boston, Mass.). Then 1 μL of test compound stock in 100% DMSO was added to the wells resulting in a final concentration of 1% DMSO in the reaction with a 100 μL final reaction volume. Next, soluble rat tyrosine kinase containing an N-terminal 6×HIS tag was diluted in 50 mM Tris-HCl pH=8.0, 0.1% BSA at a concentration of 5 ng per μL and 30 μL (150 ng enzyme per test well) was added to each well to initiate the reaction. The reaction was incubated for one hour at 30° C. At the end of the 1 h incubation, the reaction was terminated by aspirating the reaction mixture from the plate and washing the wells twice with PBS containing 100 mM EDTA. The PLC1 biotinylated peptide substrate became immobilized on the Flashplate™ and the incorporation of ^33P-γ-ATP was measured by reading the plate on a scintillation counter. Inhibition of the enzymatic activity of the VEGF-R2 kinase was measured by observing a reduced amount of ^33P-γ-ATP incorporated into the immobilized peptide.
as §1

HER2 = molecular target: T3, HER2 (Homo sapiens, UniProt P04626); experiment: HER2 Kinase Screening Assay; assay type: biochemical; settings: 10 μM ATP; >10 or >100 = less than 50% inhibition at highest concentration tested
T3 construct: polyhistidine (N)
Protocol: The HER2 kinase assay was carried out as described above for the VEGF-R kinase assay except that the enzyme was replaced with a human epidermal growth factor receptor-2 (HER2) construct contains a polyhistidine tag at the N-terminus followed by 24 additional amino acids and begins at amino acid 676 (Accession #M11730) followed by the remainder of the HER2 cytoplasmic domain.
as §1

HCT-116 colon carcinoma = experiment: Inhibition of cell proliferation (14C-thymidine incorporation), HCT116; assay type: cell-based, human
Protocol: (§2) The ability of a test compound to inhibit the proliferation of cell growth was determined by measuring incorporation of ^14C-labelled thymidine into newly synthesized DNA within the cells. This method was used on cell lines derived from carcinomas originating from several tissues such as HeLa cervical adenocarcinoma (American Type Culture Collection (ATCC), Virginia, Cat. #CCL-2), A375 malignant melanoma (ATCC CRL-1619), and HCT-116 colon carcinoma (CCL-247). In this way the effect of a compound on cell growth of cells with many different phenotypes can be determined. Cells were trypsinized and counted and 3000-8000 cells were added to each well of a 96-well CytoStar tissue culture treated scintillating microplate (Amersham #RPNQ0160) in complete medium in a volume of 100 μl. Cells were incubated for 24 hours in complete medium at 37° C. in an atmosphere containing 5% CO2.
(§3) Next, 1 μl of test compound in 100% DMSO was added to the wells of the plate. DMSO only was added to control wells. Cells were incubated for 24 more hours in complete medium at 37° C. in an atmosphere containing 5% CO2. Methyl ^14C-thymidine 56 mCi/mmol (NEN #NEC568 or Amersham #CFA532) was diluted in complete medium and 0.2 uCi/well was added to each well of the CytoStar plate in a volume of 20 ul. The plate was incubated for 24 hours at 37° C. plus 5% CO2 in drug plus ^14C-thymidine. The contents of the plate were discarded into a ^14C radioactive waste container by inverting the plate and the plate was washed twice with 200 μl PBS.
(§4) 200 μl of PBS was added to each well. The top of the plate was sealed with a transparent plate sealer and a white plate backing sealer (Packard #6005199) was applied to the bottom of the plate. The degree of methyl ^14C-thymidine incorporation was quantified on a Packard Top Count.

A375 malignant melanoma = experiment: Inhibition of cell proliferation (14C-thymidine incorporation), A375; assay type: cell-based, human
Protocol: as §2, §3, §4

T2 sequence (O08775 786-1343): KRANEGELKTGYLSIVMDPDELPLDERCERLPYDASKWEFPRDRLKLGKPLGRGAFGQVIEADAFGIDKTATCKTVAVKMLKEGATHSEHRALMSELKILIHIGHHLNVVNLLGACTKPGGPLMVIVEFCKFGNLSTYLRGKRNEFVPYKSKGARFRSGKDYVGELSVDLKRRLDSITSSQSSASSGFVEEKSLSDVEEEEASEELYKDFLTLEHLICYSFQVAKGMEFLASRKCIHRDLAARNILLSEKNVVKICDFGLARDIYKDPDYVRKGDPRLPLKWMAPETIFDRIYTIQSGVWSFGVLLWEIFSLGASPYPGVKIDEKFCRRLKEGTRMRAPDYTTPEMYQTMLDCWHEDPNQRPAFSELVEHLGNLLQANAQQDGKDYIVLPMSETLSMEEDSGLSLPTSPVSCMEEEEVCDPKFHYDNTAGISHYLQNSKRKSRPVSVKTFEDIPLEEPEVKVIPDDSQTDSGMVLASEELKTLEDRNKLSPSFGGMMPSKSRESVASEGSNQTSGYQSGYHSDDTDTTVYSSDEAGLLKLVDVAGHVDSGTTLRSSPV
T1 sequence (P06493 whole entry): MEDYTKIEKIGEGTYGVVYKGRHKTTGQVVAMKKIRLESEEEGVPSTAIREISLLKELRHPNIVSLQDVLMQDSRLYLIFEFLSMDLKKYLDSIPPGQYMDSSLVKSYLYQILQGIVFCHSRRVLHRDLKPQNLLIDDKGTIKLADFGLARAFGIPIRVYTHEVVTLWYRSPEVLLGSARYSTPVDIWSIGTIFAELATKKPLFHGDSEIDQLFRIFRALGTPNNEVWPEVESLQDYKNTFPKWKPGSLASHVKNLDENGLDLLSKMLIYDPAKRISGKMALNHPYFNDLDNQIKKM
T1 sequence (P14635 whole entry partner): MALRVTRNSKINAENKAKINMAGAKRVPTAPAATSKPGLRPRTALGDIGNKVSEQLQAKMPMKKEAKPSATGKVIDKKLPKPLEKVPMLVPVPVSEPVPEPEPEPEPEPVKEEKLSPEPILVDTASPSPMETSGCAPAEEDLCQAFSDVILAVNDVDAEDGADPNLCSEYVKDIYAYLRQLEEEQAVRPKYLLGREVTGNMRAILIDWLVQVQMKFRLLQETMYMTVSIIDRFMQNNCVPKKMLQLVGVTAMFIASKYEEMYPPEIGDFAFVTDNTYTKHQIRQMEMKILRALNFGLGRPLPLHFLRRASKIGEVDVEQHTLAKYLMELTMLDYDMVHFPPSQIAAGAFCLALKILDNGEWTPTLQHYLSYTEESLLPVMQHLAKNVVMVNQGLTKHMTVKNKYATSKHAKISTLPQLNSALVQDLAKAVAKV

Molecule	IC50 (CDK1:Cyclin-B)	IC50 (VEGF-R2 kinase)	IC50 (HER2)	IC50 (HCT-116 colon carcinoma; Homo sapiens, HCT-116)	IC50 (A375 malignant melanoma; Homo sapiens, A-375)	IC50 (HCT-116 colon carcinoma)	IC50 (A375 malignant melanoma)
4-[5-amino-1-(2,6-difluoro-benzoyl)-1H-[1,2,4]triazol-3-ylamino]-N-propionyl-benzenesulfonamide [Compound 20]	1.82 µM	1 µM	≥ 10 µM	–	–	> 10 µM	> 10 µM
NCC(=O)NS(=O)(=O)c1ccc(Nc2nc(N)n(C(=O)c3c(F)cccc3F)n2)cc1 [Compound 2, N-(2-amino-acetyl)-4-[5-amino-1-(2,6-difluoro-benzoyl)-1H-[1,2,4]triazol-3-ylamino]-benzenesulfonamide]	1.07 µM	1.97 µM	≥ 10 µM	37 µM	9.45 µM	–	–
COCCOCC(=O)NS(=O)(=O)c1ccc(Nc2nc(N)n(C(=O)c3c(F)cccc3F)n2)cc1 [Compound 3, 4-[5-amino-1-(2,6-difluoro-benzoyl)-1H-[1,2,4]triazol-3-ylamino]-N-[2-(2-methoxy-ethoxy)-acetyl]-benzenesulfonamide]	1.66 µM	2.56 µM	≥ 10 µM	> 10 µM	> 100 µM	–	–
CCOC(=O)CCC(=O)NS(=O)(=O)c1ccc(Nc2nc(N)n(C(=O)c3c(F)cccc3F)n2)cc1 [Compound 8, 4-{4-[5-amino-1-(2,6-difluoro-benzoyl)-1H-[1,2,4]triazol-3-ylamino]-benzenesulfonylamino}-4-oxo-butyric acid ethyl ester]	0.47 µM	0.47 µM	1.23 µM	40.1 µM	> 10 µM	–	–
Nc1nc(Nc2ccc(S(=O)(=O)NC(=O)CCCC(=O)O)cc2)nn1C(=O)c1c(F)cccc1F [Compound 11, 5-{4-[5-amino-1-(2,6-difluoro-benzoyl)-1H-[1,2,4]triazol-3-ylamino]-benzenesulfonylamino}-5-oxo-pentanoic acid]	12.4 µM	2.77 µM	> 100 µM	> 100 µM	> 100 µM	–	–
Nc1nc(Nc2ccc(S(=O)(=O)NC(=O)COCCOCCOCC(=O)O)cc2)nn1C(=O)c1c(F)cccc1F [Compound 12, {2-[2-(2-{4-[5-amino-1-(2,6-difluoro-benzoyl)-1H-[1,2,4]triazol-3-ylamino]-benzenesulfonylamino}-2-oxo-ethoxy)-ethoxy]-ethoxy}-acetic acid.2TFA salt]	0.76 µM	16.8 µM	> 100 µM	> 10 µM	> 10 µM	–	–

Continued by falling IC50 (CDK1:Cyclin-B), values first:

IC50 (CDK1:Cyclin-B)	IC50 (VEGF-R2 kinase)	IC50 (HER2)	IC50 (HCT-116 colon carcinoma; Homo sapiens, HCT-116)	IC50 (A375 malignant melanoma; Homo sapiens, A-375)	Molecule	IC50 (HCT-116 colon carcinoma)	IC50 (A375 malignant melanoma)
5.39 µM	2.34 µM	≥ 10 µM	> 100 µM	> 100 µM	Nc1nc(Nc2ccc(S(=O)(=O)NC(=O)Cn3cnnn3)cc2)nn1C(=O)c1c(F)cccc1F [Compound 4, 4-[5-amino-1-(2,6-difluoro-benzoyl)-1H-[1,2,4]triazol-3-ylamino]-N-(2-tetrazol-1-yl-acetyl)-benzenesulfonamide]	–	–
4.69 µM	≥ 100 µM	> 100 µM	> 100 µM	> 10 µM	COCCOCCOCC(=O)NS(=O)(=O)c1ccc(Nc2nc(N)n(C(=O)c3c(F)cccc3F)n2)cc1 [Compound 9, 4-[5-amino-1-(2,6-difluoro-benzoyl)-1H-[1,2,4]triazol-3-ylamino]-N-{2-[2-(2-methoxy-ethoxy)-ethoxy]-acetyl}-benzenesulfonamide]	–	–
2.55 µM	1.76 µM	> 100 µM	> 100 µM	> 100 µM	COCCOCCOCC(=O)Nc1nc(Nc2ccc(S(N)(=O)=O)cc2)nn1C(=O)c1c(F)cccc1F [Compound 10, N-[2-(2,6-difluoro-benzoyl)-5-(4-sulfamoyl-phenylamino)-2H-[1,2,4]triazol-3-yl]-2-[2-(2-methoxy-ethoxy)-ethoxy]-acetamide]	–	–
2.13 µM	1.22 µM	≥ 10 µM	> 10 µM	> 100 µM	CN(C)CC(=O)NS(=O)(=O)c1ccc(Nc2nc(N)n(C(=O)c3c(F)cccc3F)n2)cc1 [Compound 6, 4-[5-amino-1-(2,6-difluoro-benzoyl)-1H-[1,2,4]triazol-3-ylamino]-N-(2-dimethylamino-acetyl)-benzenesulfonamide]	–	–
1.55 µM	1.65 µM	> 100 µM	50.8 µM	> 100 µM	Nc1nc(Nc2ccc(S(=O)(=O)NC(=O)CCN3CCOCC3)cc2)nn1C(=O)c1c(F)cccc1F [Compound 7, 4-[5-amino-1-(2,6-difluoro-benzoyl)-1H-[1,2,4]triazol-3-ylamino]-N-(3-morpholin-4-yl-propionyl)-benzenesulfonamide]	–	–
1.41 µM	1.54 µM	≥ 10 µM	71.2 µM	> 10 µM	Nc1nc(Nc2ccc(S(=O)(=O)NC(=O)[C@@H](N)CO)cc2)nn1C(=O)c1c(F)cccc1F [Compound 13, 4-[5-amino-1-(2,6-difluoro-benzoyl)-1H-[1,2,4]triazol-3-ylamino]-N—((S)-2-amino-3-hydroxy-propionyl)-benzenesulfonamide]	–	–
1.34 µM	1.88 µM	≥ 10 µM	> 10 µM	> 100 µM	CN1CCN(CCC(=O)NS(=O)(=O)c2ccc(Nc3nc(N)n(C(=O)c4c(F)cccc4F)n3)cc2)CC1 [Compound 5, 4-[5-amino-1-(2,6-difluoro-benzoyl)-1H-[1,2,4]triazol-3-ylamino]-N-[3-(4-methyl-piperazin-1-yl)-propionyl]-benzenesulfonamide]	–	–
0.49 µM	1.66 µM	≥ 10 µM	> 100 µM	20.3 µM	Nc1nc(Nc2ccc(S(=O)(=O)NC(=O)CCC(=O)O)cc2)nn1C(=O)c1c(F)cccc1F [Compound 1, 4-{4-[5-amino-1-(2,6-difluoro-benzoyl)-1H-[1,2,4]triazol-3-ylamino]-benzenesulfonylamino}-4-oxo-butyric acid]	–	–
